Measured values as given in patent US20230081720A1, “MCL-1 INHIBITOR ANTIBODY-DRUG CONJUGATES AND METHODS OF USE” (NOVARTIS AG, priority 2019, published 2023).
Read-outs that look alike come from different tables or passages of the source. Marks after values point to notes of the source that are not given here.

Assays:
[1] = tested on: Monomac1 cells; experiment: Viability of Monomac1 AML cell line, CellTiterGlo 72 h; assay type: cell-based; settings: read-out: IC50 M (CTG 72 h) Monomac1
Protocol: Monomac1 cells were cultivated in RPMI supplemented with 10% heat inactivated fetal bovine serum, penicillin (100 IU/ml), streptomycin ([…]) and L-glutamine (2 mM). Cell lines were cultured at 37° C. in a humidified atmosphere containing 5% CO2. Cells were seeded in 96 microwell plates and exposed to the payloads or ADCs for 72 h (serially diluted; 9 concentrations each, triplicates). Effects of payloads or ADCs on cell viability were assessed after 3 days of incubation at 37° C./5% CO2 by quantification of cellular ATP levels using CellTiterGlo at 75 μL reagent/well. All the conditions were tested in triplicates. Luminescence was quantified on a multipurpose plate reader. IC50s were calculated using standard four-parametric curve fitting. […] Each experiment was performed at least twice, with results being reproducible.

[2] = biological target: Mcl-1 protein (Homo sapiens, UniProt Q07820); experiment: Inhibition of Mcl-1 by fluorescence polarization (FP); assay type: binding; settings: fluorescein-labelled ligand 1 nM, Mcl-1 protein 5 nM
Chain of Mcl-1 protein (Q07820 whole entry): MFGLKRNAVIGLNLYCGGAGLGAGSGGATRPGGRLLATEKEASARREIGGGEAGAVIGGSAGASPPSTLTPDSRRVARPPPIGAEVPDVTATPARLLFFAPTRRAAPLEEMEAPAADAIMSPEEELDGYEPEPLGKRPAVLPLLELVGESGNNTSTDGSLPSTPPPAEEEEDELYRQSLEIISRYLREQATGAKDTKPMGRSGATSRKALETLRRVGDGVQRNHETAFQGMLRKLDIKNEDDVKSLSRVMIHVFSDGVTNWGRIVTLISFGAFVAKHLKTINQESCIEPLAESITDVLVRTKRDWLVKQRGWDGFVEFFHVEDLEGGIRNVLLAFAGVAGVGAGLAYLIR
Protocol: The relative binding potency of each compound was determined via Fluorescence Polarization (FP).
An 11-point serial dilution of each compound was prepared in DMSO and 2 PI transferred into flat bottomed, low binding, 384-well plate (final DMSO concentration 5%). 38 μl of buffer (10 mM 4-(2-hydroxyethyl)-1-piperazineethanesulfonic acid [HEPES], 150 mM NaCl, 0.05% Tween 20, pH 7.4), containing the fluorescein-labelled ligand (final concentration 1 nM) and Mcl-1 protein (final concentration 5 nM) was then added.

[3] = tested on: NCI-H929 multiple myeloma cell line; experiment: In vitro cytotoxicity, Microculture Tetrazolium Assay (MTT); assay type: cell-based; settings: NCI-H929 cells, 48 hours
Protocol: Cytotoxicity studies were carried out on the NCI-H929 multiple myeloma cell line. The cells were distributed onto microplates and exposed to the test compounds for 48 hours.

[4] = tested on: EOL1 human acute myeloid (eosinophilic) leukemia xenograft model; experiment: EOL1 xenograft, CD74-ADCs Fc silent with different linker payloads (Example 15); assay type: in vivo, mice; settings: for T/C (%): day 10; for ΔTumor volume (mm^3): day 10, mean
Protocol: To optimize the linker payload, efficacy of 6 CD74-ADCs with different linker payloads (L5-P1, L30-P1, L31-P1, L32-P1, L33-P1 and L34-P1) was evaluated in the EOL1 model in vivo.
EOL1 luciferase transfected cells were cultured at 37° C. in an atmosphere of 5% CO2 in air in RPM11640 (BioConcept Ltd. Amimed) supplemented with 10% FCS (BioConcept Ltd. Amimed, #2-01 F30-1), 2 mM L-glutamine (BioConcept Ltd. Amimed, #5-10K00-H) and 1 mM sodium pyruvate (BioConcept Ltd. Amimed, #5-60F00-H), 10 mM HEPES (Gibco #11560496). To establish EOL1 xenografts cells were harvested and re-suspended in HBSS (Gibco, #14175) before injecting 100 μL containing 5×10^6 cells subcutaneously in the flanks of female SCID beige mice (Charles River, Germany). Tumor growth was monitored regularly post cell inoculation and animals were randomized into treatment groups (n=6) with a mean tumor volume of about 130 mm^3. The ADCs were administered intravenously (iv) once at the start of treatment at 2.5 mg/kg or at 3.3 mg/kg in combination with venetoclax which was administered orally (po) daily (qd) at 50 mg/kg. Doses were adjusted to individual mouse body weights. The iv dose volume was 10 ml/kg and each ADC was dissolved in 0.9% (w/v) NaCl in water. Tumor volume data on day 10 post treatment were analyzed statistically using one way ANOVA post hoc Tukey's multiple comparisons test (Indigo Software). Results are presented as mean±SEM. As a measure of efficacy the % T/C value is calculated on day 10 according to:
(Δtumor volume^treated/Δtumor volume^control)*100
Tumor regression was calculated according to:
−(Δtumor volume^treated/tumor volume^treated at start)*100
Where Δtumor volumes represent the mean tumor volume on the evaluation day minus the mean tumor volume at the start of the experiment.

[5] = 2.5 mg/kg i.v. once + Venetoclax 50 mg/kg p.o. qd
[6] = 3.3 mg/kg i.v. once + Venetoclax 50 mg/kg p.o. qd
[7] = female SCID beige mice, 2.5 mg/kg i.v. once + Venetoclax 50 mg/kg p.o. qd

| IC50 [2] [nM] | Compound | IC50 ([3]; Homo sapiens) [nM] | further results |
| --- | --- | --- | --- |
|  | Cc1c(Cl)c2c(Cl)c(C)c1-c1c(-c3ccc(F)cc3)sc3ncnc(c13)O[C@@H](C(=O)O)Cc1cc(ccc1OCc1ccnc([C@H]3CC[C@](F)(COC[C@@H]4COCCO4)CC3)n1)OC[C@@H](CN1CCN(C)CC1)O2 [P16, (11R,20R)-23,26-dichloro-14-[[2-[4-[[(2S)-1,4-dioxan-2-yl]methoxymethyl]-4-fluoro-cyclohexyl]pyrimidin-4-yl]methoxy]-3-(4-fluorophenyl)-24,25-dimethyl-20-[(4-methylpiperazin-1-yl)methyl]-10,18,21-trioxa-4-thia-6,8-diazapentacyclo[20.2.2.12,5.113,17.09,28]octacosa-1(24),2,5(28),6,8,13,15,17(27),22,25-decaene-11-carboxylic Acid] |  | IC50 ([1]; Mono-Mac-1, 72 h): 0.281 nM |
| 2.6 | Cc1c(-c2c(-c3ccc(F)cc3)sc3ncnc(OC(Cc4ccccc4OCc4ccnc(-c5ccc(CP(=O)(O)O)cc5)n4)C(=O)O)c23)ccc(OCCN2CCNCC2)c1Cl [C4, (2R)-2-[(5Sa)-5-[3-chloro-2-methyl-4-(2-piperazin-1-ylethoxy)phenyl]-6-(4-fluorophenyl)thieno[2,3-d]pyrimidin-4-yl]oxy-3-[2-[[2-[4-(phosphonomethyl)phenyl]pyrimidin-4-yl]methoxy]phenyl]propanoic acid] | 3210 |  |
| 0.84 | COc1c(O)cccc1-c1nccc(COc2ccccc2C[C@@H](Oc2ncnc3sc(-c4ccc(F)cc4)c(-c4ccc(OCCN5CCN(C)CC5)c(Cl)c4C)c23)C(=O)O)n1 [C14, (2R)-2-{[(5Sa)-5-{3-chloro-2-methyl-4-[2-(4-methylpiperazin-1-yl)ethoxy]phenyl}-6-(4-fluorophenyl)thieno[2,3-d]pyrimidin-4-yl]oxy}-3-(2-{[2-(3-hydroxy-2-methoxyphenyl)pyrimidin-4-yl]methoxy}phenyl)propanoic Acid] | 2.61 |  |
| 2.5 | Cc1c(-c2c(-c3ccc(F)cc3)sc3ncnc(O[C@H](Cc4ccccc4OCc4ccnc(-c5cccc(S(=O)(=O)O)c5)n4)C(=O)O)c23)ccc(OCCN2CCN(C)CC2)c1Cl [C9, (2R)-2-{[(5Sa)-5-{3-chloro-2-methyl-4-[2-(4-methylpiperazin-1-yl)ethoxy]phenyl}-6-(4-fluorophenyl)thieno[2,3-d]pyrimidin-4-yl]oxy}-3-(2-{[2-(3-sulfophenyl)pyrimidin-4-yl]methoxy}phenyl)propanoic acid] | 2270 |  |
| 2.2 | COc1ccccc1-c1nccc(COc2ccccc2C[C@@H](Oc2ncnc3sc(-c4cc(N)c(F)c(F)c4)c(-c4ccc(OCCN5CCN(C)CC5)c(Cl)c4C)c23)C(=O)O)n1 [C13, (2R)-2-{[(5Sa)-6-(3-amino-4,5-difluorophenyl)-5-{3-chloro-2-methyl-4-[2-(4-methylpiperazin-1-yl)ethoxy]phenyl}thieno[2,3-d]pyrimidin-4-yl]oxy}-3-(2-{[2-(2-methoxyphenyl)pyrimidin-4-yl]methoxy}phenyl)propanoic acid] | 3.76 |  |
| 0.948 | COc1ccccc1-c1nccc(COc2ccccc2C[C@@H](Oc2ncnc3sc(-c4ccc(F)cc4)c(-c4ccc(OCCN5CCNCC5)c(Cl)c4C)c23)C(=O)O)n1 [C3, (2R)-2-[(5Sa)-5-[3-chloro-2-methyl-4-(2-piperazin-1-ylethoxy)phenyl]-6-(4-fluorophenyl)thieno[2,3-d]pyrimidin-4-yl]oxy-3-[2-[[2-(2-methoxyphenyl)pyrimidin-4-yl]methoxy]phenyl]propanoic acid] | 42 |  |
| 3 | Cc1c(-c2c(-c3ccc(F)cc3)sc3ncnc(O[C@H](Cc4ccccc4OCc4ccnc(-c5cccc(OS(=O)(=O)O)c5)n4)C(=O)O)c23)ccc(OCCN2CCN(C)CC2)c1Cl [C8, (2R)-2-[(5Sa)-5-[3-chloro-2-methyl-4-[2-(4-methylpiperazin-1-yl)ethoxy]phenyl]-6-(4-fluorophenyl)thieno[2,3-d]pyrimidin-4-yl]oxy-3-[2-[[2-(3-sulfooxyphenyl)pyrimidin-4-yl]methoxy]phenyl]propanoic acid] | 574 |  |
|  | COCCOCCOCCOCCOCCOCCOCCOCCOCCOCCOCCOCCOCCOCCOCCOCCn1cc(COCc2cc(NC(=O)[C@H](CCCNC(N)=O)NC(=O)[C@@H](NC(=O)CCOCCN3C(=O)CC(C)C3=O)C(C)C)ccc2C[N+]2(C)CCN(CCOc3ccc(-c4c(-c5ccc(F)cc5)sc5ncnc(O[C@H](Cc6ccccc6OCc6ccnc(-c7ccccc7OC)n6)C(=O)O)c45)c(C)c3Cl)CC2)nn1 (stereo partly shown) [CD74-L34-P1] |  | T/C (%) [4, 5]: 40* %; T/C (%) [4, 6]: 17*^$ %; ΔTumor volume (mm^3) [4, 6]: 170 mm^3; ΔTumor volume (mm^3) [4, 7]: 401 mm^3 |
|  | COc1ccccc1-c1nccc(COc2ccccc2C[C@@H](Oc2ncnc3sc(-c4ccc(F)cc4)c(-c4ccc(OCCN5CC[N+](C)(Cc6ccc(NC(=O)[C@H](CCCNC(N)=O)NC(=O)[C@@H](NC(=O)CCOCCN7C(=O)CC(C)C7=O)C(C)C)cc6)CC5)c(Cl)c4C)c23)C(=O)O)n1 (stereo partly shown) [CD74-L9-P1] |  | IC50 ([1]; 72 h): 0.482 nM |
| 2.6 | CC#Cc1sc2ncnc(O[C@H](Cc3ccccc3OCc3ccnc(-c4ccccc4OC)n3)C(=O)O)c2c1-c1ccc(OCCN2CCN(C)CC2)c(Cl)c1CC [C7, (2R)-2-[(5Sa)-5-[3-chloro-2-ethyl-4-[2-(4-methylpiperazin-1-yl)ethoxy]phenyl]-6-prop-1-ynyl-thieno[2,3-d]pyrimidin-4-yl]oxy-3-[2-[[2-(2-methoxyphenyl)pyrimidin-4-yl]methoxy]phenyl]propanoic Acid] | 1.88 |  |
| 2.6 | COc1ccccc1-c1nccc(COc2ccccc2C[C@@H](Oc2ncnc3sc(-c4ccc(F)c(O)c4)c(-c4ccc(OCCN5CC[N+](C)(CCCS(=O)(=O)[O-])CC5)c(Cl)c4C)c23)C(=O)O)n1 [C2, (2R)-2-[(5Sa)-5-[3-chloro-2-methyl-4-[2-[4-methyl-4-(3-sulfopropyl)piperazin-4-ium-1-yl]ethoxy]phenyl]-6-(4-fluoro-3-hydroxy-phenyl)thieno[2,3-d]pyrimidin-4-yl]oxy-3-[2-[[2-(2-methoxyphenyl)pyrimidin-4-yl]methoxy]phenyl]propanoic acid] | 8510 |  |
|  | COCCOCCOCCOCCOCCOCCOCCOCCOCCOCCOCCOCCC(=O)N(C)Cc1cc(NC(=O)[C@H](CCCNC(N)=O)NC(=O)[C@@H](NC(=O)CCOCCN2C(=O)CC(C)C2=O)C(C)C)ccc1C[N+]1(C)CCN(CCOc2ccc(-c3c(-c4ccc(F)cc4)sc4ncnc(O[C@H](Cc5ccccc5OCc5ccnc(-c6ccccc6OC)n5)C(=O)O)c34)c(C)c2Cl)CC1 (stereo partly shown) [CD74-L32-P1] |  | T/C (%) [4, 5]: 4*^$ %; ΔTumor volume (mm^3) [4, 7]: 38 mm^3 |
| 3.4 | COc1ccccc1-c1nccc(COc2ccccc2C[C@@H](Oc2ncnc3sc(-c4ccc(F)c(OCC(F)(F)F)c4)c(-c4ccc(OCCN5CCN(C)CC5)c(Cl)c4C)c23)C(=O)O)n1 [C10, (2R)-2-[(5Sa)-5-[3-chloro-2-methyl-4-[2-(4-methylpiperazin-1-yl)ethoxy]phenyl]-6-[4-fluoro-3-(2,2,2-trifluoroethoxy)phenyl]thieno[2,3-d]pyrimidin-4-yl]oxy-3-[2-[[2-(2-methoxyphenyl)pyrimidin-4-yl]methoxy]phenyl]propanoic Acid] | 13.5 |  |

| Compound | IC50 [2] [nM] | IC50 ([3]; Homo sapiens) [nM] | further results |
| --- | --- | --- | --- |
| (2R)-2-{[(5Sa)-5-{3-chloro-2-methyl-4-[2-(4-methylpiperazin-1-yl)ethoxy]phenyl}-6-(4-fluorophenyl)thieno[2,3-d]pyrimidin-4-yl]oxy}-3-(2-{[2-(4-hydroxyphenyl)pyrimidin-4-yl]methoxy}phenyl)propanoic Acid [C5] | 4.05 |  | IC50 [3]: 4.08 nM |
